The values below come from patent publication US8133884B2, “Compounds for the treatment of hepatitis C” (priority 2008, dated 2012).

The first experiment concerns HCV replicon. Kind of experiment: HCV replicon assay (FRET or luciferase reporter). It is filed as cell-based. The note with it: Hepatitis C virus, one of the methods described, class symbol. Summed up:
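HCV replicon Huh-7 cells were exposed to titrated compound at 37 °C, with Alamar blue as a cytotoxicity read. Replication was measured by NS3 cleavage of an EDANS/DABCYL FRET peptide (20 μM, 340/490 nm kinetic read) or by Renilla luciferase, with background from high-dose protease inhibitor wells. EC50 was taken as 50% signal reduction; a 384-well format used 3.0×10^3 cells/well, 0.5% DMSO and 3 days.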
(In general: In antiviral work, replicon cells carry a viral genome segment that copies itself.)
`COc1ccc2c(c1)C=C(c1c(C(=O)N3C4CCC3CC(C)(O)C4)cnn1C1CCN(C)CC1)Cn1c-2c(C2CCCCC2)c2ccc(C(=O)NS(=O)(=O)C(C)C)cc21` (centres unmarked) gave an EC50 of 1.7 to 500 nM.

Turning to `COCC1CN(C(=O)c2cnn(C3CCN(C)CC3)c2C2=Cc3cc(OC)ccc3-c3c(C4CCCCC4)c4ccc(C(=O)NS(=O)(=O)C(C)C)cc4n3C2)CCO1` (centres unmarked), the EC50 lay in the range of 1.7 to 500 nM.

The compound `COc1ccc2c(c1)C=C(c1c(C(=O)N3C4CCCC3COC4)cnn1C1CCN(C)CC1)Cn1c-2c(C2CCCCC2)c2ccc(C(=O)NS(=O)(=O)C(C)C)cc21` registered an EC50 of 1.7 to 500 nM.

As to `CCOC(=O)c1cnn(-c2ccncc2C)c1C1=Cc2cc(OC)ccc2-c2c(C3CCCCC3)c3ccc(C(=O)O)cc3n2C1`, the EC50 is 1.7 to 500 nM.

`CCOC(=O)c1cnn(-c2ccncc2C)c1C1=Cc2cc(OC)ccc2-c2c(C3CCCCC3)c3ccc(C(=O)NS(=O)(=O)C(C)C)cc3n2C1` came in with a concentration giving a half-maximal response (EC50) of 1.7 to 500 nM.

With `COc1ccc2c(c1)C=C(c1c(C(=O)N3CCOCC3)cnn1-c1ccncc1C)Cn1c-2c(C2CCCCC2)c2ccc(C(=O)NS(=O)(=O)C(C)C)cc21`, the concentration for a half-maximal effect (EC50) lay in the range of 1.7 to 500 nM.

Take `COCC1CN(C(=O)c2cnn(-c3ccncc3C)c2C2=Cc3cc(OC)ccc3-c3c(C4CCCCC4)c4ccc(C(=O)NS(=O)(=O)C(C)C)cc4n3C2)CCO1` (centres unmarked): the EC50 was 1.7 to 500 nM.

`COc1ccc2c(c1)C=C(c1c(C(=O)N3C4CCCC3COC4)cnn1-c1ccncc1C)Cn1c-2c(C2CCCCC2)c2ccc(C(=O)NS(=O)(=O)C(C)C)cc21`: the 50% effective concentration (EC50) is 1.7 to 500 nM.

On to `COc1ccc2c(c1)C=C(c1c(C(=O)N3C[C@@H](C)O[C@@H](C)C3)cnn1-c1ccncc1C)Cn1c-2c(C2CCCCC2)c2ccc(C(=O)NS(=O)(=O)C(C)C)cc21`, for which the EC50 is 1.7 to 500 nM.

`COc1ccc2c(c1)C=C(c1c(C(=O)N3C[C@@H](C)N(C)[C@@H](C)C3)cnn1-c1ccncc1C)Cn1c-2c(C2CCCCC2)c2ccc(C(=O)NS(=O)(=O)C(C)C)cc21`: the EC50 fell in the range of 1.7 to 500 nM.

On to `COc1ccc2c(c1)C=C(c1c(C(=O)N3C4COCC3COC4)cnn1-c1ccncc1C)Cn1c-2c(C2CCCCC2)c2ccc(C(=O)NS(=O)(=O)C(C)C)cc21`, for which the EC50 fell in the range of 1.7 to 500 nM.

For the compound `COc1ccc2c(c1)C=C(c1c(C(=O)N3C4CCC3CC(C)(O)C4)cnn1-c1ccncc1C)Cn1c-2c(C2CCCCC2)c2ccc(C(=O)NS(=O)(=O)C(C)C)cc21` (centres unmarked), the EC50 lay in the range of 1.7 to 500 nM.

The compound `CCOC(=O)c1cnn(C2CC[N+](C)([O-])CC2)c1C1=Cc2cc(OC)ccc2-c2c(C3CCCCC3)c3ccc(C(=O)NS(=O)(=O)C(C)C)cc3n2C1` (centres unmarked) came in with an EC50 of 1.7 to 500 nM.

Compound `COc1ccc2c(c1)C=C(c1c(C(=O)N3C[C@@H](C)O[C@@H](C)C3)cnn1C1CCC1)Cn1c-2c(C2CCCCC2)c2ccc(C(=O)NS(=O)(=O)N(C)C)cc21` [drawing 259] yielded a concentration for a half-maximal effect (EC50) of 1.7 to 500 nM.

Still in this experiment, the particulars now being: Hepatitis C virus, one of the methods described, exact value.
`COc1ccc2c(c1)C=C(c1c(C(=O)N3C4CCC3CC(C)(O)C4)cnn1C1CCN(C)CC1)Cn1c-2c(C2CCCCC2)c2ccc(C(=O)NS(=O)(=O)C(C)C)cc21` (centres unmarked) returned a concentration giving a half-maximal response (EC50) of 10 nM.

`COCC1CN(C(=O)c2cnn(-c3ccncc3C)c2C2=Cc3cc(OC)ccc3-c3c(C4CCCCC4)c4ccc(C(=O)NS(=O)(=O)C(C)C)cc4n3C2)CCO1` (centres unmarked) yielded a concentration giving a half-maximal response (EC50) of 170 nM.

Compound `COc1ccc2c(c1)C=C(c1c(C(=O)N3C4CCCC3COC4)cnn1-c1ccncc1C)Cn1c-2c(C2CCCCC2)c2ccc(C(=O)NS(=O)(=O)C(C)C)cc21` returned an EC50 of 4 nM.

Compound `CCOC(=O)c1cnn(C2CC[N+](C)([O-])CC2)c1C1=Cc2cc(OC)ccc2-c2c(C3CCCCC3)c3ccc(C(=O)NS(=O)(=O)C(C)C)cc3n2C1` (centres unmarked) returned a half-maximal effective concentration (EC50) of 220 nM.

Staying with this experiment, now noted: one of the methods described, class symbol.
As for `COc1ccc2c(c1)C=C(c1c(C(=O)N3C[C@@H](C)O[C@@H](C)C3)cnn1C1CCC1)Cn1c-2c(C2CCCCC2)c2ccc(C(=O)NS(=O)(=O)N(C)C)cc21` [drawing 260], the EC50 lay in the range of 1.7 to 500 nM.

The target of a further experiment is T1, HCV NS5B (Hepatitis C virus genotype 1b, UniProt Q9WMX2).
T1 construct: The protein was expressed with an 18 amino acid C-terminal truncation to enhance the solubility; made in house; host or cells: E. coli BL21(DE3)
T1 sequence (Q9WMX2 2420-2992): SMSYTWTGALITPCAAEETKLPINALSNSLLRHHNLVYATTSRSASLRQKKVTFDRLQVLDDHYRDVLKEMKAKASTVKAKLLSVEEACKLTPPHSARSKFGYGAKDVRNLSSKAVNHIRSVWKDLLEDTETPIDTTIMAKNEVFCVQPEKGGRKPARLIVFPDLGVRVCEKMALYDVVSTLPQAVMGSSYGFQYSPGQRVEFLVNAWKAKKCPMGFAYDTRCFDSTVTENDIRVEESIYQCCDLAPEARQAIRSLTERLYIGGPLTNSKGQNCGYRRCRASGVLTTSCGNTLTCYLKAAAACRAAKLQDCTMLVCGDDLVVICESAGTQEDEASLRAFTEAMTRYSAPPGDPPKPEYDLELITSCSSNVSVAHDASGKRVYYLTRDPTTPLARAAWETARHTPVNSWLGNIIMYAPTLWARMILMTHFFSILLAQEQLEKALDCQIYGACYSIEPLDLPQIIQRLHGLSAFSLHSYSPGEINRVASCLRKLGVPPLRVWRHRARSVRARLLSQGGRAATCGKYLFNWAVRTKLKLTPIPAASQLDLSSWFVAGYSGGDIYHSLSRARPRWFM
Kind of experiment: Modified HCV NS5B RdRp enzyme assay (preincubation protocol). The note with it: class symbol. It is filed as biochemical. Summed up: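 C-terminally truncated (Δ18) genotype 1b NS5B from E. coli, 14 nM, added to compound first, then polyA template (0.2 nM), 3H-UTP (0.29 μM) and oligo-dT12 primer precaptured on streptavidin SPA beads (20 nM). Run 4 h at 30° C, pH 7.5, 2% DMSO; IC50 fitted from seven concentrations.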
Take `COc1ccc2c(c1)C=C(c1c(C(=O)N3C4CCC3CC(C)(O)C4)cnn1C1CCN(C)CC1)Cn1c-2c(C2CCCCC2)c2ccc(C(=O)NS(=O)(=O)C(C)C)cc21` (centres unmarked): the IC50 is 1.7 to 500 nM.

`COCC1CN(C(=O)c2cnn(C3CCN(C)CC3)c2C2=Cc3cc(OC)ccc3-c3c(C4CCCCC4)c4ccc(C(=O)NS(=O)(=O)C(C)C)cc4n3C2)CCO1` (centres unmarked) yielded an IC50 of 1.7 to 500 nM.

Compound `COc1ccc2c(c1)C=C(c1c(C(=O)N3C4CCCC3COC4)cnn1C1CCN(C)CC1)Cn1c-2c(C2CCCCC2)c2ccc(C(=O)NS(=O)(=O)C(C)C)cc21` returned an IC50 of 1.7 to 500 nM.

The compound `CCOC(=O)c1cnn(-c2ccncc2C)c1C1=Cc2cc(OC)ccc2-c2c(C3CCCCC3)c3ccc(C(=O)O)cc3n2C1` returned an IC50 of 1.7 to 500 nM.

`CCOC(=O)c1cnn(-c2ccncc2C)c1C1=Cc2cc(OC)ccc2-c2c(C3CCCCC3)c3ccc(C(=O)NS(=O)(=O)C(C)C)cc3n2C1` returned an IC50 of 1.7 to 500 nM.

With `COc1ccc2c(c1)C=C(c1c(C(=O)N3CCOCC3)cnn1-c1ccncc1C)Cn1c-2c(C2CCCCC2)c2ccc(C(=O)NS(=O)(=O)C(C)C)cc21`, the IC50 was in the range of 1.7 to 500 nM.

With `COCC1CN(C(=O)c2cnn(-c3ccncc3C)c2C2=Cc3cc(OC)ccc3-c3c(C4CCCCC4)c4ccc(C(=O)NS(=O)(=O)C(C)C)cc4n3C2)CCO1` (centres unmarked), the IC50 was in the range of 1.7 to 500 nM.

In turn, `COc1ccc2c(c1)C=C(c1c(C(=O)N3C4CCCC3COC4)cnn1-c1ccncc1C)Cn1c-2c(C2CCCCC2)c2ccc(C(=O)NS(=O)(=O)C(C)C)cc21` yielded a concentration for half-maximal inhibition (IC50) of 1.7 to 500 nM.

`COc1ccc2c(c1)C=C(c1c(C(=O)N3C[C@@H](C)O[C@@H](C)C3)cnn1-c1ccncc1C)Cn1c-2c(C2CCCCC2)c2ccc(C(=O)NS(=O)(=O)C(C)C)cc21` registered an IC50 of 1.7 to 500 nM.

In turn, `COc1ccc2c(c1)C=C(c1c(C(=O)N3C[C@@H](C)N(C)[C@@H](C)C3)cnn1-c1ccncc1C)Cn1c-2c(C2CCCCC2)c2ccc(C(=O)NS(=O)(=O)C(C)C)cc21` yielded a half-maximal inhibitory concentration (IC50) of 1.7 to 500 nM.

`COc1ccc2c(c1)C=C(c1c(C(=O)N3C4COCC3COC4)cnn1-c1ccncc1C)Cn1c-2c(C2CCCCC2)c2ccc(C(=O)NS(=O)(=O)C(C)C)cc21` displayed an IC50 of 1.7 to 500 nM.

`COc1ccc2c(c1)C=C(c1c(C(=O)N3C4CCC3CC(C)(O)C4)cnn1-c1ccncc1C)Cn1c-2c(C2CCCCC2)c2ccc(C(=O)NS(=O)(=O)C(C)C)cc21` (centres unmarked) gave a concentration for half-maximal inhibition (IC50) of 1.7 to 500 nM.

For `CCOC(=O)c1cnn(C2CC[N+](C)([O-])CC2)c1C1=Cc2cc(OC)ccc2-c2c(C3CCCCC3)c3ccc(C(=O)NS(=O)(=O)C(C)C)cc3n2C1` (centres unmarked), the half-inhibitory concentration (IC50) fell in the range of 1.7 to 500 nM.

The compound `COc1ccc2c(c1)C=C(c1c(C(=O)N3C[C@@H](C)O[C@@H](C)C3)cnn1C1CCC1)Cn1c-2c(C2CCCCC2)c2ccc(C(=O)NS(=O)(=O)N(C)C)cc21` [drawing 259] showed an IC50 of 1.7 to 500 nM.

With `COc1ccc2c(c1)C=C(c1c(C(=O)N3C[C@@H](C)O[C@@H](C)C3)cnn1C1CCC1)Cn1c-2c(C2CCCCC2)c2ccc(C(=O)NS(=O)(=O)N(C)C)cc21` [drawing 260], the IC50 fell in the range of 1.7 to 500 nM.

The same experiment, now with this note: exact value.
Regarding `COc1ccc2c(c1)C=C(c1c(C(=O)N3C4CCC3CC(C)(O)C4)cnn1C1CCN(C)CC1)Cn1c-2c(C2CCCCC2)c2ccc(C(=O)NS(=O)(=O)C(C)C)cc21` (centres unmarked), the concentration for half-maximal inhibition (IC50) was determined as 96 nM. This counts as double-digit nanomolar.

Turning to `COCC1CN(C(=O)c2cnn(-c3ccncc3C)c2C2=Cc3cc(OC)ccc3-c3c(C4CCCCC4)c4ccc(C(=O)NS(=O)(=O)C(C)C)cc4n3C2)CCO1` (centres unmarked), the 50% inhibitory concentration (IC50) was 5.5 nM.

For the compound `COc1ccc2c(c1)C=C(c1c(C(=O)N3C4CCCC3COC4)cnn1-c1ccncc1C)Cn1c-2c(C2CCCCC2)c2ccc(C(=O)NS(=O)(=O)C(C)C)cc21`, the IC50 was 4.3 nM. The IC50 values of the last two compounds are within 1.5-fold of each other.

For `CCOC(=O)c1cnn(C2CC[N+](C)([O-])CC2)c1C1=Cc2cc(OC)ccc2-c2c(C3CCCCC3)c3ccc(C(=O)NS(=O)(=O)C(C)C)cc3n2C1` (centres unmarked), it took 5.1 nM to reach half-maximal inhibition (IC50).

Usually EC50 stands for the concentration at which the effect is half-maximal. The low end stands for greater potency, the high end for weaker potency. A word on the IC50: it is the concentration at which inhibition is half-maximal. A high value points to lower potency.
